The assay deals with MV-4-11 cells. The experiment in a line: Gene expression microarray analysis (Affymetrix PrimeView) and GSEA. It counts as cell-based, human. Details: RFU PODN (11730768_x_at) / Fold change /veh PODN (11730768_x_at) / RFU LINC00158 (11744669_a_at) / Fold change /veh LINC00158 (11744669_a_at) / RFU DUSP10 (11751237_a_at) / Fold change /veh DUSP10 (11751237_a_at) / RFU ID3 (11757404_x_at) / Fold change /veh ID3 (11757404_x_at) / RFU PLEKHG5 (11737974_s_at) / Fold change /veh PLEKHG5 (11737974_s_at) / RFU LRRC4B (11730491_at) / Fold change /veh LRRC4B (11730491_at) / RFU GIMAP4 (11747438_a_at) / Fold change /veh GIMAP4 (11747438_a_at) / RFU KRT8 (11758183_x_at) / Fold change /veh KRT8 (11758183_x_at) / RFU CNN1 (11734310_a_at) / Fold change /veh CNN1 (11734310_a_at) / RFU VPS37D (11726825_at) / Fold change /veh VPS37D (11726825_at) / RFU C10orf10 (11716522_x_at) / Fold change /veh C10orf10 (11716522_x_at) / RFU KIR2DL2 /// KIR2DL4 /// KIR2DL5A /// KIR2DL5B /// KIR2DS1 /// KIR2DS2 /// KIR2DS3 /// KIR2DS4 /// KIR3DL3 /// KIR3DL3 /// KIR3DS1 (11738374_at) / Fold change /veh KIR2DL2 /// KIR2DL4 /// KIR2DL5A /// KIR2DL5B /// KIR2DS1 /// KIR2DS2 /// KIR2DS3 /// KIR2DS4 /// KIR3DL3 /// KIR3DL3 /// KIR3DS1 (11738374_at) / RFU C1QL1 (11718748_at) / Fold change /veh C1QL1 (11718748_at) / RFU TMPRSS4 (11747572_a_at) / Fold change /veh TMPRSS4 (11747572_a_at) / RFU HAMP (11756126_x_at) / Fold change /veh HAMP (11756126_x_at) / RFU RNFT2 (11725882_a_at) / Fold change /veh RNFT2 (11725882_a_at) / RFU NR4A2 (11747474_a_at) / Fold change /veh NR4A2 (11747474_a_at) / RFU ABCC12 (11746883_a_at) / Fold change /veh ABCC12 (11746883_a_at) / RFU TMEM136 (11760407_x_at) / Fold change /veh TMEM136 (11760407_x_at) / RFU CLDN22 /// WWC2 (11732394_at) / Fold change /veh CLDN22 /// WWC2 (11732394_at) / RFU HLA-DPB1 (11760878_x_at) / Fold change /veh HLA-DPB1 (11760878_x_at) / RFU SPINT1 (11716480_a_at) / Fold change /veh SPINT1 (11716480_a_at) / RFU GAP43 (11754022_s_at) / Fold change /veh GAP43 (11754022_s_at) / RFU A4GNT (11735810_at) / Fold change /veh A4GNT (11735810_at) / RFU PRB3 (11715151_x_at) / Fold change /veh PRB3 (11715151_x_at) / RFU TUBB4B (11761932_at) / Fold change /veh TUBB4B (11761932_at) / RFU CAPN14 (11732068_a_at) / Fold change /veh CAPN14 (11732068_a_at) / RFU TMCC2 (11721928_a_at) / Fold change /veh TMCC2 (11721928_a_at) / RFU IRGQ (11745062_a_at) / Fold change /veh IRGQ (11745062_a_at) / RFU FAM174B (11720279_a_at) / Fold change /veh FAM174B (11720279_a_at) / RFU TMPRSS4 (11748680_a_at) / Fold change /veh TMPRSS4 (11748680_a_at) / RFU FAM212B (11763350_a_at) / Fold change /veh FAM212B (11763350_a_at) / RFU PLEKHG5 (11743358_a_at) / Fold change /veh PLEKHG5 (11743358_a_at) / RFU ZSCAN30 (11745921_a_at) / Fold change /veh ZSCAN30 (11745921_a_at) / RFU CMKLR1 (11741424_a_at) / Fold change /veh CMKLR1 (11741424_a_at) / RFU LOC101060620 /// MAPK8IP1 (11723275_at) / Fold change /veh LOC101060620 /// MAPK8IP1 (11723275_at) / RFU SPTSSB (11747773_x_at) / Fold change /veh SPTSSB (11747773_x_at) / RFU PRSS12 (11739890_at) / Fold change /veh PRSS12 (11739890_at) / RFU BIN1 (11741810_x_at) / Fold change /veh BIN1 (11741810_x_at) / RFU WNT11 (11732464_a_at) / Fold change /veh WNT11 (11732464_a_at) / RFU C10orf10 (11716521_a_at) / Fold change /veh C10orf10 (11716521_a_at) / RFU C5orf56 (11738089_at) / Fold change /veh C5orf56 (11738089_at) / RFU CYB561 (11721691_x_at) / Fold change /veh CYB561 (11721691_x_at) / RFU ANKRD19P (11752326_a_at) / Fold change /veh ANKRD19P (11752326_a_at) / RFU OR2T12 /// OR2T33 /// OR2T8 (11738714_s_at) / Fold change /veh OR2T12 /// OR2T33 /// OR2T8 (11738714_s_at) / RFU VCAN (11748164_a_at) / Fold change /veh VCAN (11748164_a_at) / RFU JSRP1 (11732532_at) / Fold change /veh JSRP1 (11732532_at) / RFU KRTAP10-11 (11738290_x_at) / Fold change /veh KRTAP10-11 (11738290_x_at) / RFU MYO3A (11730013_a_at) / Fold change /veh MYO3A (11730013_a_at) / RFU EBF3 (11725865_a_at) / Fold change /veh EBF3 (11725865_a_at) / RFU CAMK2N1 (11719241_x_at) / Fold change /veh CAMK2N1 (11719241_x_at) / RFU C5orf56 (11738088_a_at) / Fold change /veh C5orf56 (11738088_a_at) / RFU OLFML3 (11715873_a_at) / Fold change /veh OLFML3 (11715873_a_at) / RFU LOC100653217 /// NTM (11731650_a_at) / Fold change /veh LOC100653217 /// NTM (11731650_a_at) / RFU MAPK11 (11762145_a_at) / Fold change /veh MAPK11 (11762145_a_at) / RFU FIZ1 (11724087_x_at) / Fold change /veh FIZ1 (11724087_x_at) / RFU OASL (11726364_x_at) / Fold change /veh OASL (11726364_x_at) / RFU SOX15 (11748057_x_at) / Fold change /veh SOX15 (11748057_x_at) / RFU CD79A (11719716_a_at) / Fold change /veh CD79A (11719716_a_at) / RFU HIST1H1D (11736915_at) / Fold change /veh HIST1H1D (11736915_at) / RFU CASKIN2 (11723855_a_at) / Fold change /veh CASKIN2 (11723855_a_at) / RFU LOC730098 (11760151_x_at) / Fold change /veh LOC730098 (11760151_x_at) / RFU OR4N2 (11742367_at) / Fold change /veh OR4N2 (11742367_at) / RFU PRRT2 (11749266_a_at) / Fold change /veh PRRT2 (11749266_a_at) / RFU SNX32 (11753110_a_at) / Fold change /veh SNX32 (11753110_a_at) / RFU CDHR5 (11726645_a_at) / Fold change /veh CDHR5 (11726645_a_at) / RFU RCAN1 (11760418_a_at) / Fold change /veh RCAN1 (11760418_a_at) / RFU FAM167A (11723789_a_at) / Fold change /veh FAM167A (11723789_a_at) / RFU FAM26E (11764081_at) / Fold change /veh FAM26E (11764081_at) / RFU ISYNA1 (11749810_s_at) / Fold change /veh ISYNA1 (11749810_s_at) / RFU ACY1 (11761880_at) / Fold change /veh ACY1 (11761880_at) / RFU 11764098_at / Fold change /veh 11764098_at / RFU SAMD14 (11745864_x_at) / Fold change /veh SAMD14 (11745864_x_at) / RFU NPB (11741838_a_at) / Fold change /veh NPB (11741838_a_at) / RFU TMPRSS6 (11731388_a_at) / Fold change /veh TMPRSS6 (11731388_a_at) / RFU KRTAP10-2 (11738614_at) / Fold change /veh KRTAP10-2 (11738614_at) / RFU ARHGAP8 /// PRR5-ARHGAP8 (11727945_x_at) / Fold change /veh ARHGAP8 /// PRR5-ARHGAP8 (11727945_x_at) / RFU KRTAP5-7 /// NADSYN1 (11734609_at) / Fold change /veh KRTAP5-7 /// NADSYN1 (11734609_at) / RFU RASL12 (11751679_a_at) / Fold change /veh RASL12 (11751679_a_at) / RFU CDKN2B (11736163_a_at) / Fold change /veh CDKN2B (11736163_a_at) / RFU PRF1 (11729649_at) / Fold change /veh PRF1 (11729649_at) / RFU, ZNF638 /// ZNF638-IT1 / Fold change vs veh, ZNF638 /// ZNF638-IT1 / RFU, PANK3 / Fold change vs veh, PANK3 / RFU, SH3YL1 / Fold change vs veh, SH3YL1 / RFU, ZEB2 / Fold change vs veh, ZEB2 / RFU, NRIP1 / Fold change vs veh, NRIP1 / RFU, PTTG1IP / Fold change vs veh, PTTG1IP / RFU, CAPN2 / Fold change vs veh, CAPN2 / RFU, MED14 / Fold change vs veh, MED14 / RFU, SNORA58 / Fold change vs veh, SNORA58 / RFU, C1orf63 / Fold change vs veh, C1orf63 / RFU, LRRFIP1 / Fold change vs veh, LRRFIP1 / RFU, NDUFAF7 / Fold change vs veh, NDUFAF7 / RFU, SLC12A2 / Fold change vs veh, SLC12A2 / RFU, IBTK / Fold change vs veh, IBTK / RFU, ESF1 / Fold change vs veh, ESF1 / Fold change vs veh, TMEM50B / RFU, TAOK1 / Fold change vs veh, TAOK1 / RFU, ACBD3 / Fold change vs veh, ACBD3 / RFU, TMA16 / Fold change vs veh, TMA16 / RFU, RWDD3 / Fold change vs veh, RWDD3 / RFU, BCAT1 / Fold change vs veh, BCAT1 / RFU, EDEM3 / Fold change vs veh, EDEM3 / RFU, TMEM33 / Fold change vs veh, TMEM33 / RFU, WDR75 / Fold change vs veh, WDR75 / RFU, AHCTF1 / Fold change vs veh, AHCTF1 / RFU, TFRC / Fold change vs veh, TFRC / RFU, ZDHHC17 / Fold change vs veh, ZDHHC17 / RFU, NOM1 / Fold change vs veh, NOM1 / RFU, ARL8B / Fold change vs veh, ARL8B / RFU, ZBTB11 / Fold change vs veh, ZBTB11 / RFU, TAMM41 / Fold change vs veh, TAMM41 / RFU, KIAA1704 /// LOC100996395 / Fold change vs veh, KIAA1704 /// LOC100996395 / RFU, ING1 / Fold change vs veh, ING1 / RFU, TRMT61B / Fold change vs veh, TRMT61B / RFU, FUBP3 / Fold change vs veh, FUBP3 / RFU, TP53 / Fold change vs veh, TP53 / RFU, TNKS2 / Fold change vs veh, TNKS2 / RFU, ZFP14 / Fold change vs veh, ZFP14 / RFU, ACTR2 / Fold change vs veh, ACTR2 / RFU, PPP3R1 / Fold change vs veh, PPP3R1 / RFU, PIK3R1 / Fold change vs veh, PIK3R1 / RFU, HNRNPA1 / Fold change vs veh, HNRNPA1 / RFU, RNF170 / Fold change vs veh, RNF170 / RFU, ZNF28 / Fold change vs veh, ZNF28 / RFU, RNGTT / Fold change vs veh, RNGTT / RFU, OGT / Fold change vs veh, OGT / RFU, BRD1 / Fold change vs veh, BRD1 / RFU, MARS / Fold change vs veh, MARS / RFU, ZNF655 / Fold change vs veh, ZNF655 / RFU, FAHD1 / Fold change vs veh, FAHD1 / RFU, BDP1 / Fold change vs veh, BDP1 / RFU, LRRCC1 / Fold change vs veh, LRRCC1 / RFU, ARID1A / Fold change vs veh, ARID1A / RFU, ZNF146 / Fold change vs veh, ZNF146 / RFU, ZNF330 / Fold change vs veh, ZNF330 / RFU, GPN3 / Fold change vs veh, GPN3 / RFU, C9orf123 / Fold change vs veh, C9orf123 / RFU, N4BP2L2 / Fold change vs veh, N4BP2L2 / RFU, ARFIP1 / Fold change vs veh, ARFIP1 / RFU, FAM179B / Fold change vs veh, FAM179B / RFU, BCL10 / Fold change vs veh, BCL10 / RFU, UHRF1BP1L / Fold change vs veh, UHRF1BP1L / RFU, BET1 / Fold change vs veh, BET1 / RFU, CNOT2 / Fold change vs veh, CNOT2 / RFU, ZNF268 / Fold change vs veh, ZNF268 / Fold change vs veh, ZNF507 / RFU, DGCR2 / Fold change vs veh, DGCR2 / RFU, WDSUB1 / Fold change vs veh, WDSUB1 / Fold change vs veh, HSP90B1 /// MIR3652 / RFU, ADSS / Fold change vs veh, ADSS / RFU, GK / Fold change vs veh, GK / RFU, ZNF148 / Fold change vs veh, ZNF148 / RFU, TAF9 / Fold change vs veh, TAF9 / RFU, SLC1A5 / Fold change vs veh, SLC1A5 / RFU, SLMO2 / Fold change vs veh, SLMO2 / RFU, ABCC4 / Fold change vs veh, ABCC4 / RFU, LOC101060439 /// RAP1B / Fold change vs veh, LOC101060439 /// RAP1B / RFU, RFX7 / Fold change vs veh, RFX7 / RFU, GTPBP10 / Fold change vs veh, GTPBP10 / RFU, CNEP1R1 / Fold change vs veh, CNEP1R1 / RFU, BIVM-ERCC5 /// ERCC5 / Fold change vs veh, BIVM-ERCC5 /// ERCC5 / RFU, ILF3 / Fold change vs veh, ILF3 / RFU 11762660_at / Fold change /veh 11762660_at / RFU VCAN (11757783_s_at) / Fold change /veh VCAN (11757783_s_at) / RFU DDX43 (11728927_at) / Fold change /veh DDX43 (11728927_at) / RFU KRT8 (11758188_x_at) / Fold change /veh KRT8 (11758188_x_at) / RFU NKD1 (11759106_at) / Fold change /veh NKD1 (11759106_at) / RFU SRD5A1 (11742802_a_at) / Fold change /veh SRD5A1 (11742802_a_at) / RFU TPSAB1 /// TPSB2 (11721975_s_at) / Fold change /veh TPSAB1 /// TPSB2 (11721975_s_at) / RFU GSTM3 (11746129_a_at) / Fold change /veh GSTM3 (11746129_a_at) / RFU IL23R (11737362_x_at) / Fold change /veh IL23R (11737362_x_at) / RFU TMEM51 (11727254_a_at) / Fold change /veh TMEM51 (11727254_a_at) / RFU PIWIL2 (11732686_x_at) / Fold change /veh PIWIL2 (11732686_x_at) / RFU ORM1 (11744905_x_at) / Fold change /veh ORM1 (11744905_x_at) / RFU CCDC152 (11743942_at) / Fold change /veh CCDC152 (11743942_at) / RFU ECM1 (11717891_a_at) / Fold change /veh ECM1 (11717891_a_at) / RFU IL23R (11748794_a_at) / Fold change /veh IL23R (11748794_a_at) / RFU TNFAIP8L3 (11732012_x_at) / Fold change /veh TNFAIP8L3 (11732012_x_at) / RFU MBOAT4 (11741988_at) / Fold change /veh MBOAT4 (11741988_at) / RFU 11764193_at / Fold change /veh 11764193_at / RFU TMEM53 (11763286_at) / Fold change /veh TMEM53 (11763286_at) / RFU MAGEB2 (11727129_at) / Fold change /veh MAGEB2 (11727129_at) / RFU TMEM200A (11744735_a_at) / Fold change /veh TMEM200A (11744735_a_at) / RFU CCDC152 (11751479_a_at) / Fold change /veh CCDC152 (11751479_a_at) / RFU FAM211A (11726209_a_at) / Fold change /veh FAM211A (11726209_a_at) / RFU RGS16 (11746705_a_at) / Fold change /veh RGS16 (11746705_a_at) / RFU VCAN (11755009_s_at) / Fold change /veh VCAN (11755009_s_at) / RFU RHOB (11743442_s_at) / Fold change /veh RHOB (11743442_s_at) / RFU RGS16 (11720943_a_at) / Fold change /veh RGS16 (11720943_a_at) / RFU RGS16 (11720944_at) / Fold change /veh RGS16 (11720944_at) / RFU, VPS4B / Fold change vs veh, VPS4B / RFU, CREB1 / Fold change vs veh, CREB1 / RFU, DNAJC13 / Fold change vs veh, DNAJC13 / RFU, GNAQ / Fold change vs veh, GNAQ / RFU, CDK5R1 / Fold change vs veh, CDK5R1 / RFU, ZRANB3 / Fold change vs veh, ZRANB3 / RFU, CUL4A / Fold change vs veh, CUL4A / RFU, CCNY / Fold change vs veh, CCNY / RFU, UFL1 / Fold change vs veh, UFL1 / RFU, COG3 / Fold change vs veh, COG3 / RFU, DIAPH2 / Fold change vs veh, DIAPH2 / RFU, SKA2 / Fold change vs veh, SKA2 / RFU, AFF3 / Fold change vs veh, AFF3 / RFU, LMF1 / Fold change vs veh, LMF1 / RFU, IPO11 / Fold change vs veh, IPO11 / RFU, DFFB / Fold change vs veh, DFFB / RFU, FOXP1 / Fold change vs veh, FOXP1 / RFU, CARD8 / Fold change vs veh, CARD8 / RFU, STRN3 / Fold change vs veh, STRN3 / RFU, ADK / Fold change vs veh, ADK / RFU, RASSF2 / Fold change vs veh, RASSF2 / RFU, WIPF1 / Fold change vs veh, WIPF1 / RFU, LARP1B / Fold change vs veh, LARP1B / RFU, RASA1 / Fold change vs veh, RASA1 / RFU, RB1 / Fold change vs veh, RB1 / RFU, PPFIA1 / Fold change vs veh, PPFIA1 / RFU, MAT2A / Fold change vs veh, MAT2A / RFU, CCT5 / Fold change vs veh, CCT5 / RFU, WDR92 / Fold change vs veh, WDR92 / RFU, CUX1 / Fold change vs veh, CUX1 / RFU, TTC7A / Fold change vs veh, TTC7A / RFU, TMEM135 / Fold change vs veh, TMEM135 / RFU, DEPTOR / Fold change vs veh, DEPTOR / RFU, CPM / Fold change vs veh, CPM / RFU, DNAJB6 / Fold change vs veh, DNAJB6 / RFU, CACNA2D3 / Fold change vs veh, CACNA2D3 / RFU, DTX4 / Fold change vs veh, DTX4 / RFU, TFCP2 / Fold change vs veh, TFCP2 / RFU, GMCL1 /// GMCL1P1 / Fold change vs veh, GMCL1 /// GMCL1P1 / RFU, AEBP2 / Fold change vs veh, AEBP2 / RFU, SNHG1 /// SNORD22 /// SNORD25 /// SNORD26 /// SNORD27 /// SNORD28 /// SNORD29 /// SNORD31 / Fold change vs veh, SNHG1 /// SNORD22 /// SNORD25 /// SNORD26 /// SNORD27 /// SNORD28 /// SNORD29 /// SNORD31 / Fold change (Aza/veh), C12orf56 (ProbeSet 11735607_a_at) / Fold change (ACY-1035/veh), C12orf56 (ProbeSet 11735607_a_at) / Fold change (Aza/veh), FGFR1OP (ProbeSet 11751329_s_at) / Fold change (ACY-1035/veh), FGFR1OP (ProbeSet 11751329_s_at) / Fold change (Aza/veh), VPS36 (ProbeSet 11739960_a_at) / Fold change (ACY-1035/veh), VPS36 (ProbeSet 11739960_a_at) / RFU SYPL1 (11715823_x_at) / Fold change /veh SYPL1 (11715823_x_at) / RFU IGFBP7 (11715501_s_at) / Fold change /veh IGFBP7 (11715501_s_at) / RFU REEP3 (11722064_at) / Fold change /veh REEP3 (11722064_at) / RFU IGLL1 (11728026_x_at) / Fold change /veh IGLL1 (11728026_x_at): dose or concentration left out as unconfirmed. The conditions noted are these: ProbeSet 11748335_a_at; LIST B.

Turning to `Nc1ccc(-c2cccs2)cc1NC(=O)c1ccc2c(c1)cc(C1CC1)n2CCN1CCOCC1` [ACY-1035], the “RFU, SLMO2” value is 145.26 RFU.

For the origin of these results see article PMC5218480 (PLoS ONE, 2017).
